Results published in ChEMBL document CHEMBL3860069, “A new Suzuki synthesis of triphenylethylenes that inhibit aromatase and bind to estrogen receptors α and β” (Bioorg Med Chem, 2016).
pEC50, pIC50: −log10 of the molar value.

What was measured:
[1] = biological target: T1, Estrogen receptor (Homo sapiens) (UniProt P03372); assay: Displacement of fluorescent ES2 from recombinant human ERalpha at 100 uM after 2 hrs in absence of light by fluorometric analysis relative to control
T1 sequence (whole entry): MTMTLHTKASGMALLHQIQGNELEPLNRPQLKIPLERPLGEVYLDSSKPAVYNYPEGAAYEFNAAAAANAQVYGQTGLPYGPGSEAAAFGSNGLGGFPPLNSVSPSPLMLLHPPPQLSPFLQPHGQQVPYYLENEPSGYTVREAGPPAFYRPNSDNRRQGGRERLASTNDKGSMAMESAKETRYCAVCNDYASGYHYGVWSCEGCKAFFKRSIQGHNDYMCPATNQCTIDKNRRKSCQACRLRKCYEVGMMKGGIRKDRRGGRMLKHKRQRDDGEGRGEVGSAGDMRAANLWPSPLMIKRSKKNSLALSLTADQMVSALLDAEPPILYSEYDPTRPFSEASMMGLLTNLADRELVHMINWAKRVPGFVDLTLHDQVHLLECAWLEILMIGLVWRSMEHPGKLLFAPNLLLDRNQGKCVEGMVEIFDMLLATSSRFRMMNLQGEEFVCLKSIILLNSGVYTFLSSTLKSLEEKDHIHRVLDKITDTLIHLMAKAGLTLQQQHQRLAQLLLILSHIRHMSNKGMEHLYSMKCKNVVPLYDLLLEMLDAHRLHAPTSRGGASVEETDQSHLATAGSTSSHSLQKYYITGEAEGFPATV

Estrogen receptor beta [2] = biological target: T2, Estrogen receptor beta (Homo sapiens, UniProt Q92731); assay: Displacement of fluorescent ES2 from recombinant human ERbeta at 100 uM after 2 hrs in absence of light by fluorometric analysis relative to control
CYP19 (aromatase) = biological target: T3, CYP19 (aromatase) (Homo sapiens, UniProt P11511); assay: in vitro; conditions: recombinant human microsomal CYP19, probe MFC
T3 sequence (P11511 whole entry): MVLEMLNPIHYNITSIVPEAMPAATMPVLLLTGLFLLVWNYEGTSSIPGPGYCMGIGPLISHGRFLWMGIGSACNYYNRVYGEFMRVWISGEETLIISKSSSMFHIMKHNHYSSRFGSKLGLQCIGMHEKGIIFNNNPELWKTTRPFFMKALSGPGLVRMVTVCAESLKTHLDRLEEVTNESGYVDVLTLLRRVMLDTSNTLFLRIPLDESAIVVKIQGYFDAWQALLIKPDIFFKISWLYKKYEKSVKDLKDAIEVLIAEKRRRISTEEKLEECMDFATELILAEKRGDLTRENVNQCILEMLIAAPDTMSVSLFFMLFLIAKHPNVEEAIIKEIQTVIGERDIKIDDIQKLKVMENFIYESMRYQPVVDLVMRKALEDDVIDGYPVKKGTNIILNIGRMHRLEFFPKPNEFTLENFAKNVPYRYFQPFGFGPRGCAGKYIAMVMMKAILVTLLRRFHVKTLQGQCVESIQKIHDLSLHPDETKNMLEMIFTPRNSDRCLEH
Description: Inhibition of recombinant human microsomal CYP19 at 50 uM using MFC as substrate measured after 30 mins by fluorometric analysis relative to control

Aromatase = biological target: T4, Aromatase (Homo sapiens, UniProt P11511)
T4 sequence (P11511 whole entry): T3 sequence (P11511 whole entry)
Description: Inhibition of recombinant human microsomal CYP19 using MFC as substrate measured after 30 mins by fluorometric analysis

Estrogen receptor = biological target: T5, Estrogen receptor (Homo sapiens, UniProt P03372)
T5 sequence (P03372 whole entry): T1 sequence (whole entry)
Description: Displacement of fluorescent ES2 from recombinant human ERalpha after 2 hrs in absence of light by fluorometric analysis

Estrogen receptor beta [3] = biological target: T2, Estrogen receptor beta
Description: Displacement of fluorescent ES2 from recombinant human ERbeta after 2 hrs in absence of light by fluorometric analysis

T2 sequence (Q92731 whole entry): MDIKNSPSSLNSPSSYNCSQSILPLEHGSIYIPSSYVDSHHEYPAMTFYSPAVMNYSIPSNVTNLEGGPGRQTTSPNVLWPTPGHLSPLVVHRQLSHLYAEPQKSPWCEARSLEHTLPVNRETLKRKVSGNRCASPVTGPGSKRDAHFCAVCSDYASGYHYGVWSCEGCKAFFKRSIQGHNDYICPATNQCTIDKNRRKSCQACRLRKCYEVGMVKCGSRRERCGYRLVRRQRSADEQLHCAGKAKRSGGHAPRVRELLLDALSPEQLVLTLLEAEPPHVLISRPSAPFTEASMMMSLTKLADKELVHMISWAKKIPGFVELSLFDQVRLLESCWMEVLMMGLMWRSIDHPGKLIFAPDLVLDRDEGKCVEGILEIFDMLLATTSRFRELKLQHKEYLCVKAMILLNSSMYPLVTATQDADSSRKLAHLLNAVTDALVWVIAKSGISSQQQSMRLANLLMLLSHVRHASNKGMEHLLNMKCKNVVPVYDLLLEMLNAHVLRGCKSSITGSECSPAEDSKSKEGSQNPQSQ

Row | Structure (SMILES) | inhibition [1] | inhibition (Estrogen receptor beta [2]) | inhibition at 0.5 h, 50 µM (CYP19 (aromatase)) | pIC50 (Aromatase) | pEC50 (Estrogen receptor) | pEC50 (Estrogen receptor beta [3])
1 | CCC(=C(c1ccc(O)cc1)c1ccc(OCCN)cc1)c1ccccc1 |  |  | > 90% |  |  | 
2 | CC/C(=C(/c1ccc(O)cc1)c1ccc(OCC(N)=O)cc1)c1ccccc1 | 57% | 71% | > 90% | 5.03 |  | 
3 | CCC(=C(c1ccc(O)cc1)c1ccc(O)cc1)c1ccccc1 |  |  | > 90% |  |  | 
4 | CC/C(=C(\c1ccc(O)cc1)c1ccc(OCCN)cc1)c1ccccc1 |  |  | > 90% |  |  | 
5 | CC/C(=C(/c1ccc(O)cc1)c1ccc(OCCN)cc1)c1ccccc1 |  |  | > 90% |  |  | 
6 | CCC(=C(c1ccc(N)cc1)c1ccc(NCC(N)=O)cc1)c1ccc([N+](=O)[O-])cc1 |  |  | > 90% | 6.54 | 6.35 | 6.46
7 | CC(=C(c1ccc(O)cc1)c1ccc(OCC(N)=O)cc1)c1ccc([N+](=O)[O-])cc1 | 0% | 0% | > 90% | 5.01 |  | 
8 | CCC(=C(c1ccc(O)cc1)c1ccc(OCC(N)=O)cc1)c1ccc([N+](=O)[O-])cc1 | 0% | 0% | 76% |  |  | 
9 | CCC(=C(c1ccc(O)cc1)c1ccc(O)cc1)c1ccc([N+](=O)[O-])cc1 | 40% | 66% | 78% |  |  | 

Now from value to compound:

Row | inhibition [1] | inhibition (Estrogen receptor beta [2]) | inhibition at 0.5 h, 50 µM (CYP19 (aromatase)) | pIC50 (Aromatase) | pEC50 (Estrogen receptor) | pEC50 (Estrogen receptor beta [3]) | Structure (SMILES)
10 | 19% | 55% | 75% |  |  |  | CC(=C(c1ccc(O)cc1)c1ccc(O)cc1)c1ccc([N+](=O)[O-])cc1
11 |  |  | > 90% |  |  |  | CCC(=C(c1ccc(N)cc1)c1ccc(N)cc1)c1ccc([N+](=O)[O-])cc1
12 |  |  | > 90% |  |  |  | CC(=C(c1ccc(O)cc1)c1ccc(O)cc1)c1ccc(N)cc1
13 | 25% | 76% | > 90% |  |  |  | CCC(=C(c1ccc(N)cc1)c1ccc(N)cc1)c1ccc(N)cc1
14 |  |  | > 90% | 6.19 | 6.78 | 6.66 | CC(=C(c1ccc(N)cc1)c1ccc(NCC(N)=O)cc1)c1ccc([N+](=O)[O-])cc1
15 |  |  | > 90% |  |  |  | CCC(=C(c1ccc(O)cc1)c1ccc(O)cc1)c1ccc(N)cc1
16 | 31% | 77% | > 90% |  |  |  | CC(=C(c1ccc(N)cc1)c1ccc(N)cc1)c1ccc(N)cc1
17 |  |  | > 90% |  |  |  | CC(=C(c1ccc(N)cc1)c1ccc(N)cc1)c1ccc([N+](=O)[O-])cc1
